Reference: ChEMBL document CHEMBL5055665, “Discovery of the Triazolo[1,5-a]Pyrimidine-Based Derivative WS-898 as a Highly Efficacious and Orally Bioavailable ABCB1 Inhibitor Capable of Overcoming Multidrug Resistance” (J Med Chem, 2021)

Assays:
[1] = test system: SW-620; assay: Reversal of resistance to paclitaxel-induced cytotoxicity in human SW-620/AD300 cells assessed as reversal fold at 2 uM preincubated for 4 hrs followed by paclitaxel addition and measured after 72 hrs by MTT assay relative to paclitaxel; type: functional; details: time 76 hrs
[2] = test system: SW-620; assay: Reversal of resistance to paclitaxel-induced cytotoxicity in human SW-620/AD300 cells assessed as reduction in paclitaxel IC50 at 2 uM preincubated for 4 hrs followed by paclitaxel addition and measured after 72 hrs by MTT assay (reference value: 4.23 +/- 0.50 uM); type: functional, cell-based
[3] = test system: SW-620; assay: Reversal of resistance to paclitaxel-induced cytotoxicity in human SW-620/AD300 cells assessed as reduction in paclitaxel IC50 at 1 uM preincubated for 4 hrs followed by paclitaxel addition and measured after 72 hrs by MTT assay (reference value: 4.23 +/- 0.50 uM); type: functional, cell-based
[4] = test system: SW-620; assay: Reversal of resistance to paclitaxel-induced cytotoxicity in human SW-620/AD300 cells assessed as reversal fold at 1 uM preincubated for 4 hrs followed by paclitaxel addition and measured after 72 hrs by MTT assay relative to paclitaxel; type: functional; details: time 76 hrs
[5] = test system: SW-620; assay: Reversal of resistance to paclitaxel-induced cytotoxicity in human SW-620/AD300 cells assessed as reversal fold at 10 uM preincubated for 4 hrs followed by paclitaxel addition and measured after 72 hrs by MTT assay relative to paclitaxel; type: functional; details: time 76 hrs
[6] = test system: SW-620; assay: Reversal of resistance to paclitaxel-induced cytotoxicity in human SW-620/AD300 cells assessed as reduction in paclitaxel IC50 at 10 uM preincubated for 4 hrs followed by paclitaxel addition and measured after 72 hrs by MTT assay (reference value: 4.23 +/- 0.50 uM); type: functional, cell-based
[7] = test system: SW-620; assay: Reversal of resistance to paclitaxel-induced cytotoxicity in human SW-620/AD300 cells assessed as reduction in paclitaxel IC50 at 6 uM preincubated for 4 hrs followed by paclitaxel addition and measured after 72 hrs by MTT assay (reference value: 4.23 +/- 0.50 uM); type: functional, cell-based
[8] = test system: SW-620; assay: Reversal of resistance to paclitaxel-induced cytotoxicity in human SW-620/AD300 cells assessed as reversal fold at 6 uM preincubated for 4 hrs followed by paclitaxel addition and measured after 72 hrs by MTT assay relative to paclitaxel; type: functional; details: time 76 hrs
[9] = test system: SW-620; assay: Reversal of resistance to paclitaxel-induced cytotoxicity in human SW-620/AD300 cells assessed as reduction in paclitaxel IC50 at 5 uM preincubated for 4 hrs followed by paclitaxel addition and measured after 72 hrs by MTT assay (reference value: 4.23 +/- 0.50 uM); type: functional, cell-based
[10] = test system: SW-620; assay: Reversal of resistance to paclitaxel-induced cytotoxicity in human SW-620/AD300 cells assessed as reversal fold at 5 uM preincubated for 4 hrs followed by paclitaxel addition and measured after 72 hrs by MTT assay relative to paclitaxel; type: functional; details: time 76 hrs

Cc1cc(Nc2ccc(C(=O)/C=C/c3ccc(Br)cc3)cc2)n2nc(SCc3nc4ccccc4[nH]3)nc2n1
fold change (FC) [1]: 14.59 | IC50 [2]: 290 nM

Cc1cc(Nc2ccc(C(=O)/C=C/c3cccc(Br)n3)cc2)n2nc(SCc3nc4ccccc4[nH]3)nc2n1
IC50 [3]: 58 nM | fold change (FC) [4]: 72.93

CCCSc1nc2nc(C)cc(Nc3ccc(C(=O)/C=C/c4ccc5ccccc5c4)cc3)n2n1
fold change (FC) [5]: 3.95 | IC50 [6]: 1070 nM

Cc1cc(Nc2ccc(C(=O)/C=C/c3ccc4ccccc4c3)cc2)n2nc(SCC(=O)c3ccccc3)nc2n1
fold change (FC) [1]: 22.26 | IC50 [2]: 190 nM

O=C(/C=C/c1ccc2ccccc2c1)c1ccc(Nc2cc(-c3ccccc3)nc3ncnn23)cc1
fold change (FC) [5]: 5.35 | IC50 [6]: 790 nM

Cc1cc(Nc2ccc(C(=O)/C=C/c3ccc4ccccc4c3)cc2)n2nc(SCCc3ccccc3)nc2n1
IC50 [7]: 670 nM | fold change (FC) [8]: 6.31

Cc1ccc(CSc2nc3nc(C)cc(Nc4ccc(C(=O)/C=C/c5ccc6ccccc6c5)cc4)n3n2)cc1
IC50 [9]: 880 nM | fold change (FC) [10]: 4.81

Cc1cc(Nc2ccc(C(=O)/C=C/c3ccc(OC(F)(F)F)c(OC(F)(F)F)c3)cc2)n2nc(SCc3nc4ccccc4[nH]3)nc2n1
IC50 [3]: 120 nM | fold change (FC) [4]: 35.25

COc1ccc(/C=C/C(=O)c2ccc(Nc3cc(C)nc4nc(SCc5nc6ccccc6[nH]5)nn34)cc2)cc1
fold change (FC) [1]: 24.88 | IC50 [2]: 170 nM

Cc1cc(Nc2ccc(C(=O)/C=C/c3ccc(OC(F)(F)F)cc3)cc2)n2nc(SCc3nc4ccccc4[nH]3)nc2n1
fold change (FC) [1]: 19.5 | IC50 [2]: 220 nM

Cc1cc(Nc2ccc(C(=O)/C=C/c3ccccc3)cc2)n2nc(SCc3nc4ccccc4[nH]3)nc2n1
fold change (FC) [1]: 32.54 | IC50 [2]: 130 nM

Cc1cc(Nc2ccc(C(=O)/C=C/c3ccc4ccccc4c3)cc2)n2nc(SCc3ccc([N+](=O)[O-])cc3)nc2n1
IC50 [9]: 1130 nM | fold change (FC) [10]: 3.74

COc1ccc(CSc2nc3nc(C)cc(Nc4ccc(C(=O)/C=C/c5ccc6ccccc6c5)cc4)n3n2)cc1
IC50 [9]: 250 nM | fold change (FC) [10]: 16.92

Cc1cc(Nc2ccc(C(=O)/C=C/c3ccc4ccccc4c3)cc2)n2nc(SCc3ccccc3C(F)(F)F)nc2n1
IC50 [9]: 1240 nM | fold change (FC) [10]: 3.41

Cc1cc(Nc2ccc(C(=O)/C=C/c3ccc4ccccc4c3)cc2)n2ncnc2n1
fold change (FC) [5]: 5.79 | IC50 [6]: 730 nM

Cc1cc(Nc2ccc(C(=O)/C=C/c3ccc4ccccc4c3)cc2)n2nc(SCc3cccc(C(F)(F)F)c3)nc2n1
IC50 [9]: 2070 nM | fold change (FC) [10]: 2.04

COc1cc(/C=C/C(=O)c2ccc(Nc3cc(C)nc4nc(SCc5nc6ccccc6[nH]5)nn34)cc2)cc(OC)c1OC
IC50 [3]: 75 nM | fold change (FC) [4]: 56.4

Cc1cc(Nc2ccc(C(=O)/C=C/c3cccc(Cl)c3)cc2)n2nc(SCc3nc4ccccc4[nH]3)nc2n1
fold change (FC) [1]: 10.58 | IC50 [2]: 400 nM

Cc1cc(Nc2ccc(C(=O)/C=C/c3ccc4ccccc4c3)cc2)n2nc(SCc3cccc(Br)c3)nc2n1
IC50 [9]: 270 nM | fold change (FC) [10]: 15.67

Cc1cc(Nc2ccc(C(=O)/C=C/c3ccc4ccccc4c3)cc2)n2nc(SCc3ccccc3[N+](=O)[O-])nc2n1
IC50 [9]: 960 nM | fold change (FC) [10]: 4.36

Cc1cc(Nc2ccc(C(=O)/C=C/c3ccc4ccccc4c3)cc2)n2nc(SCc3cccc([N+](=O)[O-])c3)nc2n1
IC50 [9]: 790 nM | fold change (FC) [10]: 5.35

Cc1cc(Nc2ccc(C(=O)/C=C/c3ccc4ccccc4c3)cc2)n2nc(SCc3ccc(F)cc3)nc2n1
IC50 [9]: 320 nM | fold change (FC) [10]: 13.22

Cc1cc(Nc2ccc(C(=O)/C=C/c3ccc(C(F)(F)F)cc3)cc2)n2nc(SCc3nc4ccccc4[nH]3)nc2n1
fold change (FC) [1]: 2.29 | IC50 [2]: 1850 nM

C=CCSc1nc2nc(C)cc(Nc3ccc(C(=O)/C=C/c4ccc5ccccc5c4)cc3)n2n1
fold change (FC) [5]: 4.6 | IC50 [6]: 920 nM
